Assays:
[1] = system: HCV replicon RNA (GenBank Accession No. AJ242654); assay: HCV Replicon Assay (replicon RNA reduction and/or Fluc reporter signal); assay type: cell-based, Hepatitis C virus; details: Hepatitis C virus, 72 h, replicon-containing cells cultured with test compound for up to 3 days
Summary of the method: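 IC50 values mostly reflect the drop in replicon RNA, though Fluc reporter signal may also be used. Compound incubated with cells carrying the bicistronic replicon for as long as 3 days; interferon served as positive control.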

| SMILES | IC50 [1] | melting point |
| --- | --- | --- |
| N#Cc1c(-c2ccc(S(=O)(=O)NC(CF)CF)cc2)n(C2CCC2)c2ncc(Cl)cc12 [Cpd 8, 4-(5-chloro-3-cyano-1-cyclobutyl-1H-pyrrolo[2,3-b]pyridin-2-yl)-N-(1,3-difluoropropan-2-yl)benzenesulfonamide] | 500 to 2000 nM | 234 to 238 °C |
| COc1cnc2c(c1)c(C#N)c(-c1ccc(S(=O)(=O)NC(CF)CF)cn1)n2C1CCC1 [Cpd 9, 6-(3-cyano-1-cyclobutyl-5-methoxy-1H-pyrrolo[2,3-b]pyridin-2-yl)-N-(1,3-difluoropropan-2-yl)pyridine-3-sulfonamide] | < 500 nM | 161 to 163 °C |
| N#Cc1c(-c2ccc(S(=O)(=O)NC(CF)CF)cn2)n(C2CCCC2)c2ncc(Cl)cc12 [Cpd 10, 6-(5-chloro-3-cyano-1-cyclopentyl-1H-pyrrolo[2,3-b]pyridin-2-yl)-N-(1,3-difluoropropan-2-yl)pyridine-3-sulfonamide] | < 500 nM | 208 to 209 °C |
| COc1cnc2c(c1)c(C#N)c(-c1ncc(S(=O)(=O)NC(CF)CF)cn1)n2C1CCC1 [Cpd 11, 2-(3-cyano-1-cyclobutyl-5-methoxy-1H-pyrrolo[2,3-b]pyridin-2-yl)-N-(1,3-difluoropropan-2-yl)pyrimidine-5-sulfonamide] | 500 to 2000 nM | 194 to 196 °C |
| N#Cc1c(-c2ccc(S(=O)(=O)NC(CF)CF)cn2)n(C2CCC2)c2ncc(F)cc12 [Cpd 12, 6-(3-cyano-1-cyclobutyl-5-fluoro-1H-pyrrolo[2,3-b]pyridin-2-yl)-N-(1,3-difluoropropan-2-yl)pyridine-3-sulfonamide] | 500 to 2000 nM | 155 to 157 °C |
| N#Cc1c(-c2ncc(S(=O)(=O)NC(CF)CF)cn2)n(C2CCC2)c2ncc(Cl)cc12 [Cpd 13, 2-(5-chloro-3-cyano-1-cyclobutyl-1H-pyrrolo[2,3-b]pyridin-2-yl)-N-(1,3-difluoropropan-2-yl)pyrimidine-5-sulfonamide] | < 500 nM | 199 to 200 °C |
| N#Cc1c(-c2ccc(S(=O)(=O)NC(CF)CF)cn2)n(C2CCC2)c2ncc(Cl)cc12 [Cpd 14, 6-(5-chloro-3-cyano-1-cyclobutyl-1H-pyrrolo[2,3-b]pyridin-2-yl)-N-(1,3-difluoropropan-2-yl)pyridine-3-sulfonamide] | < 500 nM | 176 to 178 °C |
| COc1ccc2c(n1)c(C#N)c(-c1ccc(S(=O)(=O)NC(CF)CF)cn1)n2C1CCC1 [Cpd 15, 6-(3-cyano-1-cyclobutyl-5-methoxy-1H-pyrrolo[3,2-b]pyridin-2-yl)-N-(1,3-difluoropropan-2-yl)pyridine-3-sulfonamide] | 500 to 2000 nM | 199 to 201 °C |
| N#Cc1c(-c2ncc(S(=O)(=O)NC(CF)CF)cn2)n(C2CCC2)c2ncc(F)cc12 [Cpd 16, 2-(3-cyano-1-cyclobutyl-5-fluoro-1H-pyrrolo[2,3-b]pyridin-2-yl)-N-(1,3-difluoropropan-2-yl)pyrimidine-5-sulfonamide] | 500 to 2000 nM | 204 to 206 °C |
| N#Cc1c(-c2ncc(S(=O)(=O)NC(CF)CF)cn2)n(C2CCCC2)c2ncc(Cl)cc12 [Cpd 17, 2-(5-chloro-3-cyano-1-cyclopentyl-1H-pyrrolo[2,3-b]pyridin-2-yl)-N-(1,3-difluoropropan-2-yl)pyrimidine-5-sulfonamide] | 500 to 2000 nM | 247 to 248 °C |
| C[C@H](NS(=O)(=O)c1ccc(-c2c(C#N)c3cccnc3n2C2CCC2)nc1)C(F)(F)F [Cpd 18, 6-(3-cyano-1-cyclobutyl-1H-pyrrolo[2,3-b]pyridin-2-yl)-N-[(2S)-1,1,1-trifluoropropan-2-yl]pyridine-3-sulfonamide] | 500 to 2000 nM | 183 to 185 °C |
| COc1ccc2c(n1)c(C#N)c(-c1ncc(S(=O)(=O)NC(CF)CF)cn1)n2C1CCC1 [Cpd 19, 2-(3-cyano-1-cyclobutyl-5-methoxy-1H-pyrrolo[3,2-b]pyridin-2-yl)-N-(1,3-difluoropropan-2-yl)pyrimidine-5-sulfonamide] | 2000 to 5000 nM | 241 to 243 °C |
| C[C@H](NS(=O)(=O)c1cnc(-c2c(C#N)c3cc(F)cnc3n2C2CCC2)nc1)C(F)(F)F [Cpd 21, 2-(3-cyano-1-cyclobutyl-5-fluoro-1H-pyrrolo[2,3-b]pyridin-2-yl)-N-[(2S)-1,1,1-trifluoropropan-2-yl]pyrimidine-5-sulfonamide] | < 500 nM | 186 to 187 °C |
| COc1cnc2c(c1)c(C#N)c(-c1ncc(S(=O)(=O)N[C@@H](C)C(F)(F)F)cn1)n2C1CCC1 [Cpd 23, 2-(3-cyano-1-cyclobutyl-5-methoxy-1H-pyrrolo[2,3-b]pyridin-2-yl)-N-[(2S)-1,1,1-trifluoropropan-2-yl]pyrimidine-5-sulfonamide] | 500 to 2000 nM | 193 to 196 °C |
| C[C@H](NS(=O)(=O)c1ccc(-c2c(C#N)c3cc(Cl)cnc3n2C2CCCC2)nc1)C(F)(F)F [Cpd 24, 6-(5-chloro-3-cyano-1-cyclopentyl-1H-pyrrolo[2,3-b]pyridin-2-yl)-N-[(2S)-1,1,1-trifluoropropan-2-yl]pyridine-3-sulfonamide] | < 500 nM | 197 to 199 °C |
| C[C@H](NS(=O)(=O)c1cnc(-c2c(C#N)c3cc(Cl)cnc3n2C2CCCC2)nc1)C(F)(F)F [Cpd 25, 2-(5-chloro-3-cyano-1-cyclopentyl-1H-pyrrolo[2,3-b]pyridin-2-yl)-N-[(2S)-1,1,1-trifluoropropan-2-yl]pyrimidine-5-sulfonamide] | 500 to 2000 nM | 206 to 208 °C |
| Cc1cc2c(cn1)c(C#N)c(-c1ccc(S(=O)(=O)NC(CF)CF)cn1)n2C1CCC1 [Cpd 26, 6-(3-cyano-1-cyclobutyl-6-methyl-1H-pyrrolo[3,2-c]pyridin-2-yl)-N-(1,3-difluoropropan-2-yl)pyridine-3-sulfonamide] | 500 to 2000 nM | 216 to 218 °C |
| Cc1cc2c(cn1)c(C#N)c(-c1ncc(S(=O)(=O)NC(CF)CF)cn1)n2C1CCC1 [Cpd 27, 2-(3-cyano-1-cyclobutyl-6-methyl-1H-pyrrolo[3,2-c]pyridin-2-yl)-N-(1,3-difluoropropan-2-yl)pyrimidine-5-sulfonamide] | < 500 nM | 234 to 236 °C |
| Cc1cc2c(cn1)c(C#N)c(-c1ccc(S(=O)(=O)N[C@@H](C)C(F)(F)F)cn1)n2C1CCC1 [Cpd 28, 6-(3-cyano-1-cyclobutyl-6-methyl-1H-pyrrolo[3,2-c]pyridin-2-yl)-N-[(2S)-1,1,1-trifluoropropan-2-yl]pyridine-3-sulfonamide] | 2000 to 5000 nM | 189 to 191 °C |
| Cc1cc2c(cn1)c(C#N)c(-c1ccc(S(=O)(=O)N[C@H](C)C(F)(F)F)cn1)n2C1CCC1 [Cpd 29, 6-(3-cyano-1-cyclobutyl-6-methyl-1H-pyrrolo[3,2-c]pyridin-2-yl)-N-[(2R)-1,1,1-trifluoropropan-2-yl]pyridine-3-sulfonamide] | < 500 nM | 176 to 178 °C |
| Cc1cc2c(cn1)c(C#N)c(-c1ccc(S(=O)(=O)N[C@@H](C)C(F)(F)F)cc1)n2C1CCC1 [Cpd 30, 4-(3-cyano-1-cyclobutyl-6-methyl-1H-pyrrolo[3,2-c]pyridin-2-yl)-N-[(2S)-1,1,1-trifluoropropan-2-yl]benzenesulfonamide] | < 500 nM | 248 to 249 °C |
| Cc1cc2c(cn1)c(C#N)c(-c1ccc(S(=O)(=O)N[C@H](C)C(F)(F)F)cc1)n2C1CCC1 [Cpd 31, 4-(3-cyano-1-cyclobutyl-6-methyl-1H-pyrrolo[3,2-c]pyridin-2-yl)-N-[(2R)-1,1,1-trifluoropropan-2-yl]benzenesulfonamide] | < 500 nM | 247 to 249 °C |
| Cc1cc2c(cn1)c(C#N)c(-c1ncc(S(=O)(=O)NC(C)C)cn1)n2C1CCC1 [Cpd 32, 2-(3-cyano-1-cyclobutyl-6-methyl-1H-pyrrolo[3,2-c]pyridin-2-yl)-N-(propan-2-yl)pyrimidine-5-sulfonamide] | < 500 nM | 242 to 243 °C |
| Cc1cc2c(cn1)c(C#N)c(-c1ccc(S(=O)(=O)NC(CF)CF)cc1)n2C1CCC1 [Cpd 33, 4-(3-cyano-1-cyclobutyl-6-methyl-1H-pyrrolo[3,2-c]pyridin-2-yl)-N-(1,3-difluoropropan-2-yl)benzenesulfonamide] | < 500 nM | 234 to 236 °C |
| N#Cc1c(-c2ccc(S(=O)(=O)NC(CF)CF)cc2)n(C2CCC2)c2ncccc12 [Cpd 34, 4-(3-cyano-1-cyclobutyl-1H-pyrrolo[2,3-b]pyridin-2-yl)-N-(1,3-difluoropropan-2-yl)benzenesulfonamide] | < 500 nM | 180 to 182 °C |
| C[C@@H](NS(=O)(=O)c1ccc(-c2c(C#N)c3cccnc3n2C2CCC2)nc1)C(F)(F)F [Cpd 35, 6-(3-cyano-1-cyclobutyl-1H-pyrrolo[2,3-b]pyridin-2-yl)-N-[(2R)-1,1,1-trifluoropropan-2-yl]pyridine-3-sulfonamide] | < 500 nM | 184 to 186 °C |
| CC(C)NS(=O)(=O)c1cnc(-c2c(C#N)c3cccnc3n2C2CCC2)nc1 [Cpd 36, 2-(3-cyano-1-cyclobutyl-1H-pyrrolo[2,3-b]pyridin-2-yl)-N-(propan-2-yl)pyrimidine-5-sulfonamide] | < 500 nM | 197 to 199 °C |
| CC(C)NS(=O)(=O)c1cnc(-c2c(C#N)c3cc(F)cnc3n2C2CCC2)nc1 [Cpd 37, 2-(3-cyano-1-cyclobutyl-5-fluoro-1H-pyrrolo[2,3-b]pyridin-2-yl)-N-(propan-2-yl)pyrimidine-5-sulfonamide] | < 500 nM | 207 to 209 °C |
| COc1ccc2c(C#N)c(-c3ccc(S(=O)(=O)N[C@@H](C)C(F)(F)F)cn3)n(C3CCC3)c2n1 [Cpd 40, 6-(3-cyano-1-cyclobutyl-6-methoxy-1H-pyrrolo[2,3-b]pyridin-2-yl)-N-[(2S)-1,1,1-trifluoropropan-2-yl]pyridine-3-sulfonamide] | 500 to 2000 nM | 193 to 194 °C |

— US9593108B2, “Compounds and methods for antiviral treatment” (PTC Therapeutics, Inc., priority 2009, dated 2017)
